Each compound was assayed on Nrf2 transcriptional activity (pARE-Luc reporter) in HepG2 cells (assay: In vitro Nrf2 transcriptional activity measurement by ARE-dependent reporter assay in HepG2 cell). Details: Homo sapiens; HepG2 cells transfected with pARE-Luc, 4 hours at 37° C.; luciferase activity of Example 1-54 or Example 17-23 at 3.75 μM defined as 100%.
Format: cell-based, human
Summary of the method: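 Luminescence readout (Bright-Glo) after 4 h, 37° C compound exposure of HepG2 cells carrying the ARE-luciferase vector pGL4.37. Each well converted to % response versus reference compound at 3.75 μM, and EC50 derived from dose-response curves.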

Row | Compound | EC50
1 | O=C(O)c1cc(F)c(-c2cccc3c2OCN(C(=O)c2c(Cl)cc(N4C5CC4CN(C4COC4)C5)cc2Cl)C3)cc1N1C2CCC1COC2 [Compound 20-6, 4-[3-[2,6-Dichloro-4-[3-(oxetan-3-yl)-3,6-diazabicyclo[3.1.1]heptan-6-yl]benzoyl]-2,4-dihydro-1,3-benzoxazin-8-yl]-5-fluoro-2-(3-oxa-8-azabicyclo[3.2.1]octan-8-yl)benzoic acid] | 48 nM
2 | C[C@H]1CN(C2COC2)CCN1c1cc(Cl)c(C(=O)N2COc3c(cccc3-c3cc(N4C5CCC4COC5)c(C(=O)O)cc3F)C2)c(Cl)c1 [Compound 9-19, 4-[3-[2,6-Dichloro-4-[(2S)-2-methyl-4-(oxetan-3-yl)piperazin-1-yl]benzoyl]-2,4-dihydro-1,3-benzoxazin-8-yl]-5-fluoro-2-(3-oxa-8-azabicyclo[3.2.1]octan-8-yl)benzoic acid] | 5.9 nM
3 | COc1cc(Cl)c(C(=O)N2COc3c(cccc3-c3cc(N4CCOCC4)c(C(=O)O)cc3F)C2)cc1C#N [Compound 18-3, 4-[3-(2-Chloro-5-cyano-4-methoxybenzoyl)-2,4-dihydro-1,3-benzoxazin-8-yl]-5-fluoro-2-morpholin-4-ylbenzoic acid] | 14 nM
4 | COc1ccc(-c2cc(Cl)c(C(=O)N3COc4c(cccc4-c4cc(N5C6CCC5COC6)c(C(=O)O)cc4F)C3)c(Cl)c2)nn1 [Compound 3-3, 4-[3-[2,6-Dichloro-4-(6-methoxypyridazin-3-yl)benzoyl]-2,4-dihydro-1,3-benzoxazin-8-yl]-5-fluoro-2-(3-oxa-8-azabicyclo[3.2.1]octan-8-yl)benzoic acid] | 9.4 nM
5 | O=C(O)c1ccc(-c2cccc3c2C(=O)NN(C(=O)c2c(Cl)cc(N4CCN(CC(F)(F)F)CC4)cc2Cl)C3)cc1N1CCOCC1 [Compound 1-77, 4-[2-[2,6-Dichloro-4-[4-(2,2,2-trifluoroethyl)piperazin-1-yl]benzoyl]-4-oxo-1,3-dihydrophthalazin-5-yl]-2-morpholin-4-ylbenzoic acid] | 5.6 nM
6 | O=C(O)c1cc(F)c(-c2cccc3c2OCN(C(=O)c2c(Cl)cc(N4CCN5CCC[C@@H]5C4)cc2Cl)C3)cc1N1C2CCC1COC2 [Compound 4-9, 4-[3-[4-[(8aR)-3,4,6,7,8,8a-Hexahydro-1H-pyrrolo[1,2-a]pyrazin-2-yl]-2,6-dichlorobenzoyl]-2,4-dihydro-1,3-benzoxazin-8-yl]-5-fluoro-2-(3-oxa-8-azabicyclo[3.2.1]octan-8-yl)benzoic acid] | 2.2 nM
7 | CN1CCN(c2cc(Cl)c(C(=O)N3COc4c(cccc4-c4cc(N5C6CCC5COC6)c(C(=O)O)cc4F)C3)c(Cl)c2)C2CC21 (stereo not drawn) [Compound 9-5, 4-[3-[2,6-Dichloro-4-(5-methyl-2,5-diazabicyclo[4.1.0]heptan-2-yl)benzoyl]-2,4-dihydro-1,3-benzoxazin-8-yl]-5-fluoro-2-(3-oxa-8-azabicyclo[3.2.1]octan-8-yl)benzoic acid] | 4.6 nM
8 | O=C(O)c1cc(F)c(-c2cccc3c2OCN(C(=O)c2c(Cl)cc(N4CCNC(C(F)(F)F)C4)cc2Cl)C3)cc1N1C2CCC1COC2 (stereo not drawn) [Compound 1-32, 4-[3-[2,6-Dichloro-4-[3-(trifluoromethyl)piperazin-1-yl]benzoyl]-2,4-dihydro-1,3-benzoxazin-8-yl]-5-fluoro-2-(3-oxa-8-azabicyclo[3.2.1]octan-8-yl)benzoic acid] | 1.5 nM
9 | CO[C@@H]1CCOC12CN(c1cc(Cl)c(C(=O)N3COc4c(cccc4-c4cc(N5C6CCC5COC6)c(C(=O)O)cc4F)C3)c(Cl)c1)C2 [Compound 1-30, 4-[3-[2,6-Dichloro-4-[(8R)-8-methoxy-5-oxa-2-azaspiro[3.4]octan-2-yl]benzoyl]-2,4-dihydro-1,3-benzoxazin-8-yl]-5-fluoro-2-(3-oxa-8-azabicyclo[3.2.1]octan-8-yl)benzoic acid] | 2.6 nM
10 | CC(C)(CO)n1cc(-c2cc(Cl)c(C(=O)N3COc4c(cccc4-c4cc(N5CCOCC5)c(C(=O)O)cc4F)C3)c(Cl)c2)cn1 [Compound 3-1, 4-[3-[2,6-Dichloro-4-[1-(1-hydroxy-2-methylpropan-2-yl)pyrazol-4-yl]benzoyl]-2,4-dihydro-1,3-benzoxazin-8-yl]-5-fluoro-2-morpholin-4-ylbenzoic acid] | 1.3 nM
11 | O=C(O)c1cc(F)c(-c2cccc3c2OCN(C(=O)c2c(Cl)cc(N4CC[C@@H](O)C4)cc2Cl)C3)cc1N1CCOCC1 [Compound 4-28, 4-[3-[2,6-Dichloro-4-[(3R)-3-hydroxypyrrolidin-1-yl]benzoyl]-2,4-dihydro-1,3-benzoxazin-8-yl]-5-fluoro-2-morpholin-4-ylbenzoic acid] | 1.6 nM
12 | CN1C[C@@H]2CC[C@H]1CN2c1cc(Cl)c(C(=O)N2COc3c(cccc3-c3cc(N4C5CCC4COC5)c(C(=O)O)cc3F)C2)c(Cl)c1 [Compound 20-3, 4-[3-[2,6-Dichloro-4-[(1S,4S)-5-methyl-2,5-diazabicyclo[2.2.2]octan-2-yl]benzoyl]-2,4-dihydro-1,3-benzoxazin-8-yl]-5-fluoro-2-(3-oxa-8-azabicyclo[3.2.1]octan-8-yl)benzoic acid] | 40 nM
13 | O=C(O)c1cc(F)c(-c2cccc3c2OCN(C(=O)c2c(Cl)cc(N4CC5(C4)OCCCCO5)cc2Cl)C3)cc1N1C2CCC1COC2 [Compound 5-6, 4-[3-[2,6-Dichloro-4-(5,10-dioxa-2-azaspiro[3.6]decan-2-yl)benzoyl]-2,4-dihydro-1,3-benzoxazin-8-yl]-5-fluoro-2-(3-oxa-8-azabicyclo[3.2.1]octan-8-yl)benzoic acid] | 2.3 nM
14 | O=C(O)c1cc(F)c(-c2cccc3c2OCN(C(=O)c2ccc(N4CC5(COC5)C4)cc2Cl)C3)cc1N1CCOCC1 [Compound 4-33, 4-[3-[2-Chloro-4-(2-oxa-6-azaspiro[3.3]heptan-6-yl)benzoyl]-2,4-dihydro-1,3-benzoxazin-8-yl]-5-fluoro-2-morpholin-4-ylbenzoic acid] | 5.1 nM
15 | Cn1ncc2c(-c3cc(Cl)c(C(=O)N4COc5c(cccc5-c5cc(N6C7CCC6COC7)c(C(=O)O)cc5F)C4)c(Cl)c3)ccnc21 [Compound 3-16, 4-[3-[2,6-Dichloro-4-(1-methylpyrazolo[3,4-b]pyridin-4-yl)benzoyl]-2,4-dihydro-1,3-benzoxazin-8-yl]-5-fluoro-2-(3-oxa-8-azabicyclo[3.2.1]octan-8-yl)benzoic acid] | 11 nM
16 | O=C(O)c1cc(F)c(-c2cccc3c2OCN(C(=O)c2c(Cl)cc(N4CCN5CCOC[C@H]5C4)cc2Cl)C3)cc1N1C2CCC1COC2 [Compound 4-14, 4-[3-[4-[(9aR)-3,4,6,7,9,9a-Hexahydro-1H-pyrazino[2,1-c][1,4]oxazin-8-yl]-2,6-dichlorobenzoyl]-2,4-dihydro-1,3-benzoxazin-8-yl]-5-fluoro-2-(3-oxa-8-azabicyclo[3.2.1]octan-8-yl)benzoic acid] | 9 nM
17 | Cn1cc(-c2cc(Cl)c(C(=O)N3COc4c(cccc4-c4ccc(C(=O)O)c(N5CCSCC5)c4)C3)c(Cl)c2)cn1 [Compound 18-5, 4-[3-[2,6-Dichloro-4-(1-methylpyrazol-4-yl)benzoyl]-2,4-dihydro-1,3-benzoxazin-8-yl]-2-thiomorpholin-4-ylbenzoic acid] | 12 nM
18 | COC1(C(F)(F)F)CN(c2cc(Cl)c(C(=O)N3COc4c(cccc4-c4cc(N5C6CCC5COC6)c(C(=O)O)cc4F)C3)c(Cl)c2)C1 [Compound 6-2, 4-[3-[2,6-Dichloro-4-[3-methoxy-3-(trifluoromethyl)azetidin-1-yl]benzoyl]-2,4-dihydro-1,3-benzoxazin-8-yl]-5-fluoro-2-(3-oxa-8-azabicyclo[3.2.1]octan-8-yl)benzoic acid] | 2.8 nM
19 | O=C(O)c1cc(F)c(-c2cccc3c2OCN(C(=O)c2c(Cl)cc(N4CC5(CCC5)C4)cc2Cl)C3)cc1N1C2CCC1COC2 [Compound 4-7, 4-[3-[4-(2-Azaspiro[3.3]heptan-2-yl)-2,6-dichlorobenzoyl]-2,4-dihydro-1,3-benzoxazin-8-yl]-5-fluoro-2-(3-oxa-8-azabicyclo[3.2.1]octan-8-yl)benzoic acid] | 3.3 nM
20 | O=C(O)c1cc(F)c(-c2cccc3c2OCN(C(=O)c2c(Cl)cc(N4CC5(C4)CN(C4CC(F)(F)C4)C5)cc2Cl)C3)cc1N1C2CCC1COC2 [Compound 9-2, 4-[3-[2,6-Dichloro-4-[2-(3,3-difluorocyclobutyl)-2,6-diazaspiro[3.3]heptan-6-yl]benzoyl]-2,4-dihydro-1,3-benzoxazin-8-yl]-5-fluoro-2-(3-oxa-8-azabicyclo[3.2.1]octan-8-yl)benzoic acid] | 7.4 nM
21 | COC[C@H](O)Cn1cc(-c2cc(Cl)c(C(=O)N3COc4c(cccc4-c4cc(N5CCOCC5)c(C(=O)O)cc4F)C3)c(Cl)c2)cn1 [Compound 15-3, 4-[3-[2,6-Dichloro-4-[1-[(2R)-2-hydroxy-3-methoxypropyl]pyrazol-4-yl]benzoyl]-2,4-dihydro-1,3-benzoxazin-8-yl]-5-fluoro-2-morpholin-4-ylbenzoic acid] | 1.5 nM
22 | O=C(O)c1ccc(-c2cccc3c2OCN(C(=O)c2c(Cl)cc(-c4ccncc4)cc2Cl)C3)cc1N1CCOCC1 [Compound 2-4, 4-[3-(2,6-Dichloro-4-pyridin-4-ylbenzoyl)-2,4-dihydro-1,3-benzoxazin-8-yl]-2-morpholin-4-ylbenzoic acid] | 5.7 nM
23 | Cn1cc(-c2cc(Cl)c(C(=O)N3COc4c(cccc4-c4cc(N5CCOCC5)c(C(=O)O)cc4F)C3)cn2)cn1 [Compound 13-10, 4-[3-[4-Chloro-6-(1-methylpyrazol-4-yl)pyridine-3-carbonyl]-2,4-dihydro-1,3-benzoxazin-8-yl]-5-fluoro-2-morpholin-4-ylbenzoic acid] | 17 nM
24 | O=C(O)c1cc(F)c(-c2cccc3c2OCN(C(=O)c2c(Cl)cc(N4CC(F)(F)C(F)(F)C4)cc2Cl)C3)cc1N1C2CCC1COC2 [Compound 1-44, 4-[3-[2,6-Dichloro-4-(3,3,4,4-tetrafluoropyrrolidin-1-yl)benzoyl]-2,4-dihydro-1,3-benzoxazin-8-yl]-5-fluoro-2-(3-oxa-8-azabicyclo[3.2.1]octan-8-yl)benzoic acid] | 6.5 nM

— patent publication US20250171457A1, “NITROGEN-CONTAINING HETEROCYCLIC COMPOUND HAVING NRF2 ACTIVATION EFFECT” (CHUGAI SEIYAKU KABUSHIKI KAISHA, priority 2022, published 2025)
